In this experiment the target is T1, WT holoALAS2 (residues 54–587) (Homo sapiens, UniProt P22557).
T1 construct: His6-SUMO (N, cleaved yes); made in house; host or cells: Escherichia coli BL21-Codon Plus (DE3)-RIL
T1 sequence (P22557 54-587): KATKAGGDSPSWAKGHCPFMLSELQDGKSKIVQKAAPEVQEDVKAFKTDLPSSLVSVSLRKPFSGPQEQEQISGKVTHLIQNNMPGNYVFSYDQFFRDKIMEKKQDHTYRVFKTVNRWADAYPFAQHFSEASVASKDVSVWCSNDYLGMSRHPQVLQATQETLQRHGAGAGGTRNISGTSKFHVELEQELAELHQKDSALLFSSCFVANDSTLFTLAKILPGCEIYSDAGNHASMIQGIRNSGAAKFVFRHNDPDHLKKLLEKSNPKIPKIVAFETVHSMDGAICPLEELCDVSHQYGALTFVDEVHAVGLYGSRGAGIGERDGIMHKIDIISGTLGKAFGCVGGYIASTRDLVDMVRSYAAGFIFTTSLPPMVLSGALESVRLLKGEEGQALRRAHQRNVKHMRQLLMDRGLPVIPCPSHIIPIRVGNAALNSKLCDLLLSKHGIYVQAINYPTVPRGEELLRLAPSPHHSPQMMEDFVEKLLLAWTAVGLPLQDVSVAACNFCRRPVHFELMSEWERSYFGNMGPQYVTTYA
Briefly: Succinyl-CoA:hemin competition analysis. The conditions noted are these: succinyl-CoA varied; for Km: 95% confidence interval in brackets. The experiment is classed as biochemical. The procedure: A discontinuous colorimetric activity assay adapted from Shoolingin-Jordan et al. and Bailey et al. was used to measure the enzyme activity ([48], [74]). The reaction was initiated by adding 100 nM purified enzyme to 50 mM potassium phosphate, pH 7.0, 10 mM MgCl2, 1 mM DTT, 100 mM glycine, and 300 μM succinyl-CoA (175 μl total). The reaction was incubated at 37 °C for 15 min and terminated with 100 μl of cold 10% trichloroacetic acid. The precipitated protein was removed by centrifugation for 5 min at 13,000g, and 240 μl of the supernatant was mixed with 240 μl of 1 M sodium acetate, pH 4.6. To derivatize ALA, 20 μl of acetylacetone was added to the mixture and boiled at 100 °C for 10 min. After the sample was cooled for 20 min, 100 μl aliquots were transferred into a clear 96-well plate in triplicate. An equal volume of Ehrlich’s reagent (p-Dimethylaminobenzaldehyde, DMAB) was added to each well, and the absorbance was monitored at 553 nm using a microplate reader (Thermo Fisher Scientific). The peak absorbance value was converted to molar ALA concentration using ε553 = 60,400 M^−1 cm^−1.
For inhibitor competition experiments, the apoenzymes were preincubated with hemin or PLP (0–100 μM) for 15 min at 25 °C in the dark before initiating the reaction. Next, either PLP or hemin (0–100 μM) was titrated into the reactions to measure enzyme activation after hemin inhibition or enzyme inhibition of the PLP-treated apoenzyme, respectively. For succinyl-CoA:hemin competition analyses, the WT holoenzyme was mixed with hemin (0, 25, 50, and 100 μM), followed by the addition of increasing succinyl-CoA concentrations (0, 25, 50, 100, 250, and 500 μM). All experiments were performed with a minimum of three biological replicates, each with three technical replicates. Data were fit using nonlinear regression to generate an agonist dose-response curve (EC50) or an inhibitor dose-response curve (IC50). Lineweaver-Burk analysis was performed using the resulting kinetic parameters (Vmax and KM) in GraphPad Prism 10.

For orientation: Km means the substrate concentration at which the rate is half of its maximum. succinyl-CoA: the Vmax was 337.15 [445.63, 271.22] nmol/min/mg (hemin 0 μM); 109.04 [132.82, 92.51] nmol/min/mg (hemin 25 μM); 45.98 [63.13, 36.15] nmol/min/mg (hemin 50 μM); 37.50 [60.98, 27.07] nmol/min/mg (hemin 100 μM). In addition, the Km came to 178 µM (hemin 0 μM), 54.8 µM (hemin 25 μM), 46.2 µM (hemin 50 μM) and 39.2 µM (hemin 100 μM).

(Values after PMC12856317, “A reversible feedback mechanism regulating mitochondrial heme synthesis” (The Journal of Biological Chemistry, 2025).)
